{"source": "ChEMBL document CHEMBL5360655", "about": "“Design, Synthesis, and Biological Evaluation of Novel P2X7 Receptor Antagonists for the Treatment of Septic Acute Kidney Injury” (J Med Chem, 2023)", "key": {"[1]": {"target": "T1, P2X purinoceptor 7 (Homo sapiens) (UniProt Q99572)", "T1 sequence (whole entry)": "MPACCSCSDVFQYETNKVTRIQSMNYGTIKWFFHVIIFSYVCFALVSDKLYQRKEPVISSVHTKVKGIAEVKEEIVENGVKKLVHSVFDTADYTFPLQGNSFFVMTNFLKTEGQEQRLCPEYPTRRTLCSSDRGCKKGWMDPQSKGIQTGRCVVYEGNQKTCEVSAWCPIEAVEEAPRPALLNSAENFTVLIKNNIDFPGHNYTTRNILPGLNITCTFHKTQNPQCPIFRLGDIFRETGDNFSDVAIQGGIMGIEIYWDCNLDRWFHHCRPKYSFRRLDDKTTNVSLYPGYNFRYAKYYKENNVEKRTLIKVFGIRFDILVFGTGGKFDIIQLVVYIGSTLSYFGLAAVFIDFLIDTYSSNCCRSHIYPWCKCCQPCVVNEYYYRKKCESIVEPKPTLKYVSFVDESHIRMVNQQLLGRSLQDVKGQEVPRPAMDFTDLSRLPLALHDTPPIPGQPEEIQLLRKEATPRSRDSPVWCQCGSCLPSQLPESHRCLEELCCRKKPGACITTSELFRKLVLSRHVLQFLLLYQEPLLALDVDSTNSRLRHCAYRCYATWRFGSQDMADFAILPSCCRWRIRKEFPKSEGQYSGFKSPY", "test": "Antagonist activity at human P2X7 receptor expressed in HEK293 cells assessed as inhibition of ATP-induced receptor pore formation at 200 nM by propidium iodide dye uptake based fluorescence analysis", "type": "cell-based", "details": "filed as antagonist"}, "P2X purinoceptor 7": {"target": "T2, P2X purinoceptor 7 (Mus musculus, UniProt Q9Z1M0)", "T2 sequence (Q9Z1M0 whole entry)": "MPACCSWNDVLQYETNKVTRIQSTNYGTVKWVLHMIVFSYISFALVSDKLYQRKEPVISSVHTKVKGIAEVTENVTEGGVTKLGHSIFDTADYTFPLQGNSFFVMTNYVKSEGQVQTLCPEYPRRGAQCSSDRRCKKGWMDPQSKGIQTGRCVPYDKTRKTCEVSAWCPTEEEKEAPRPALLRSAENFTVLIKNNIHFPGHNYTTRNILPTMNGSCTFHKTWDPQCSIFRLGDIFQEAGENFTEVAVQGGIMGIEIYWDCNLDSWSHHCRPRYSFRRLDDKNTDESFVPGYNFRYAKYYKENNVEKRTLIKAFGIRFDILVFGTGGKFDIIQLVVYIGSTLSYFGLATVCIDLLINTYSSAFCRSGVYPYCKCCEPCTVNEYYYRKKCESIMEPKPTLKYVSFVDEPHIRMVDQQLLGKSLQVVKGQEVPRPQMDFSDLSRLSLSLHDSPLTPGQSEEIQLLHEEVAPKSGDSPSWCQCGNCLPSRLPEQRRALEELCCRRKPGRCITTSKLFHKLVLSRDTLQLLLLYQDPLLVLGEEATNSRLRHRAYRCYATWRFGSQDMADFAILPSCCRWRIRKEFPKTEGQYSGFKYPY", "test": "Antagonist activity at mouse P2X7 receptor expressed in HEK293 cells assessed as inhibition of ATP-induced receptor pore formation by propidium iodide dye uptake based fluorescence analysis", "type": "cell-based"}, "[2]": {"test": "Intrinsic clearance in human liver microsomes", "type": "ADME, Microsome", "details": "read-out: CLH"}, "THP-1 [3]": {"test_system": "THP-1", "test": "Cytotoxicity against human THP-1 cells assessed as effect on cell viability at 1 to 4 uM incubated for 2 hrs by CCK8 assay", "type": "toxicity, cell-based", "details": "thp-1, 2 h, dose 1-4 µM"}, "[4]": {"test": "Cmax in BALB/c mouse at 10 mg/kg, iv measured for 24 hrs by LC-MS/MS analysis", "type": "ADME, organism-based", "parameters": "time 24 hrs, dose 10 mg/kg, route iv", "details": "in vivo"}, "[5]": {"test": "Half life in BALB/c mouse at 10 mg/kg, po measured for 24 hrs by LC-MS/MS analysis", "type": "ADME, organism-based", "details": "in vivo"}, "[6]": {"test": "Clearance in BALB/c mouse at 10 mg/kg, ip measured for 24 hrs by LC-MS/MS analysis", "type": "ADME, organism-based", "details": "in vivo"}, "Mus musculus [7]": {"test_system": "Mus musculus", "test": "Reno-protective activity against LPS-induced acute kidney injury C57BL/6J mouse model assessed as decrease in BUN level at 10 mg/kg, ip administered twice at 30 mins prior to LPS challenge and 8 hrs post-LPS challenge and measured at 16 hrs post-LPS challenge", "type": "functional, organism-based", "details": "time 16.5 hrs"}, "THP-1 [8]": {"test_system": "THP-1", "test": "Inhibition of ATP-induced apoptosis in human THP-1 cells at […] pretreated with compound for 3 hrs in presence of LPS followed by incubation with ATP for 1 hr by PI/Hoechst staining based fluorescence microscopic analysis", "type": "functional, cell-based", "details": "dose 2.5 µM, time 4.0 hrs"}, "THP-1 [9]": {"test_system": "THP-1", "test": "Effect on P2X7 receptor expression in human THP-1 cells at 0.1 to […] pretreated with LPS for 3 hrs followed by incubation with compound for 40 mins followed by treatment with ATP for 1 hr by western blot analysis", "type": "functional, cell-based", "details": "dose 0.1-2.5 µM, time 100.0 min"}, "THP-1 [10]": {"test_system": "THP-1", "test": "Inhibition of ATP-induced mitochondrial damage in human THP-1 cells at […] pretreated with compound for 3 hrs in presence of LPS followed by incubation with ATP for 1 hr by MitoTracker dye based fluorescence analysis", "type": "functional, cell-based", "details": "dose 2.5 µM, time 4.0 hrs"}, "[11]": {"test": "Toxicity in C57BL/6J mouse assessed as pathological changes in liver at 20 mg/kg, ip administered twice at 0 hrs and 8 hrs and measured after 16 hrs by Hematoxylin-Eosin staining based analysis", "type": "organism-based", "details": "in vivo"}, "[12]": {"test": "Toxicity in ip dosed C57BL/6J mouse assessed as maximum tolerated dose and measured for 14 days", "type": "organism-based", "details": "in vivo, time 14 day"}, "Mus musculus [13]": {"test_system": "Mus musculus", "test": "Reno-protective activity against LPS-induced acute kidney injury C57BL/6J mouse model assessed as decrease in tubular injury by measuring epithelial flattening and tubular dilation at 5 to 20 mg/kg, ip administered twice at 30 mins prior to LPS challenge and 8 hrs post-LPS challenge and measured at 16 hrs post-LPS challenge by Hematoxylin-Eosin staining based analysis", "type": "functional, organism-based", "details": "dose 5-20 mg/kg, time 16.5 hrs"}, "Mus musculus [14]": {"test_system": "Mus musculus", "test": "Reno-protective activity against LPS-induced acute kidney injury C57BL/6J mouse model assessed as decrease in serum […] level at 5 to 20 mg/kg, ip administered twice at 30 mins prior to LPS challenge and 8 hrs post-LPS challenge and measured at 16 hrs post-LPS challenge", "type": "functional, organism-based", "details": "dose 5-20 mg/kg, time 16.5 hrs"}, "Mus musculus [15]": {"test_system": "Mus musculus", "test": "Reno-protective activity against CLP-induced acute kidney injury C57BL/6J mouse model assessed as decrease in serum […] level at 20 mg/kg, ip administered twice at 30 mins prior to CLP operation and 8 hrs post-CLP operation and measured at 16 hrs post-CLP operation", "type": "functional, organism-based", "details": "time 16.5 hrs"}, "Mus musculus [16]": {"test_system": "Mus musculus", "test": "(§1) Reno-protective activity against CLP-induced acute kidney injury C57BL/6J mouse model assessed as decrease in tubular injury at 20 mg/kg, ip administered twice at 30 mins prior to CLP operation and 8 hrs post-CLP operation and measured at 16 hrs post-CLP operation by Hematoxylin-Eosin staining based analysis", "type": "functional, organism-based", "details": "time 16.5 hrs"}, "Mus musculus [17]": {"test_system": "Mus musculus", "test": "as §1, with “Il1b gene expression in kidney” for “tubular injury”, “RNA sequencing” for “Hematoxylin-Eosin staining based”", "type": "functional, organism-based", "details": "time 16.5 hrs"}, "Mus musculus [18]": {"test_system": "Mus musculus", "test": "as §1, with “IL-18 mRNA expression in kidney” for “tubular injury”, “RT-qPCR” for “Hematoxylin-Eosin staining based”", "type": "functional, organism-based", "details": "time 16.5 hrs"}, "Mus musculus [19]": {"test_system": "Mus musculus", "test": "as §1, with “GSDMD mRNA expression in kidney” for “tubular injury”, “RT-qPCR” for “Hematoxylin-Eosin staining based”", "type": "functional, organism-based", "details": "time 16.5 hrs"}, "Mus musculus [20]": {"test_system": "Mus musculus", "test": "as §1, with “cleaved IL-1 beta protein expression in kidney” for “tubular injury”, “western blot” for “Hematoxylin-Eosin staining based”", "type": "functional, organism-based", "details": "time 16.5 hrs"}}, "note": "Active and inactive are the calls of the source. The calls are words filed in the database; no cut-off is given here.", "data": [{"smiles": "CS(=O)(=O)c1ccc(-c2nc(C(=O)NCc3cn(-c4cc(Br)ccn4)nn3)cs2)cc1", "values": [{"measurement": "inhibition", "setting": "[1]", "result": 92, "unit": "%"}, {"measurement": "IC50", "setting": "P2X purinoceptor 7", "result": 0.0101, "unit": "µM"}, {"measurement": "CLint scaled", "setting": "[2]", "result": 16.6, "unit": "mL/min/kg"}, {"measurement": "Activity", "setting": "THP-1 [3]", "result": "Non-Toxic"}, {"measurement": "Cmax", "setting": "[4]", "result": 4730, "unit": "ng/mL"}, {"measurement": "half-life", "setting": "[5]", "result": 1.92, "unit": "h"}, {"measurement": "CL/F", "setting": "[6]", "result": 12.7, "unit": "mL/min/kg"}, {"measurement": "Activity", "setting": "Mus musculus [7]", "result": "Active"}, {"measurement": "inhibition", "setting": "THP-1 [8]", "result": "Active"}, {"measurement": "Activity", "setting": "THP-1 [9]", "result": "inactive"}, {"measurement": "inhibition", "setting": "THP-1 [10]", "result": "Active"}, {"measurement": "Activity", "setting": "[11]", "result": "Non-Toxic"}, {"measurement": "MTD at 336 h", "setting": "[12]", "result": 400, "unit": "mg/kg"}, {"measurement": "Activity", "setting": "Mus musculus [13]", "result": "Dose-Dependent Effect"}, {"measurement": "Activity", "setting": "Mus musculus [14]", "result": "Dose-Dependent Effect"}, {"measurement": "Activity", "setting": "Mus musculus [15]", "result": "Active"}, {"measurement": "Activity", "setting": "Mus musculus [16]", "result": "Active"}, {"measurement": "Activity", "setting": "Mus musculus [17]", "result": "Active"}, {"measurement": "Activity", "setting": "Mus musculus [18]", "result": "Active"}, {"measurement": "Activity", "setting": "Mus musculus [19]", "result": "Active"}, {"measurement": "Activity", "setting": "Mus musculus [20]", "result": "Active"}]}]}
